Test results as given in patent US9119874B2, “Cell-penetrating markers of apoptosis” (TRUSTEES OF BOSTON COLLEGE, priority 2012, dated 2015).

Tested on: Jurkat cells
Experiment: Confocal microscopy of stained Jurkat cells with and without CPT treatment
Assay type: cell-based
Text: FIGS. 5A-5D are confocal microscopy images of F1-EA staining Jurkat cell samples without the washing step. FIGS. 5A and 5C display the FITC channel; FIGS. 5B and 5D display the phase contrast channel.
FIGS. 6A-6D are micrographs depicting representative confocal images.
FIGS. 8A-8D are a series of micrographs depicting confocal microscopy images of Rhodamine B and Rd-EA staining Jurkat cell samples. FIGS. 8A and 8B show Rhodamine B stained cells while FIGS. 8C and 8D show Rd-EA stained cells. FIGS. 8A and 8C are CPT treated cells while
The specificity of F1-EA for apoptotic cells were further validated through a costaining experiment with the R-phycoerythrin labeled annexin V (AV-PE, yellow emission). […] The flow cytometry result was further validated with confocal microscopy analysis.

Molecule	selectivity of staining for apoptotic cells (confocal images, CPT-treated vs untreated Jurkat cells)	location of the stain in CPT-treated cells (confocal image, CPT-treated Jurkat cells)
CCN(CC)c1ccc2c(-c3ccccc3C(=O)O)c3ccc(=[N+](CC)CC)cc-3oc2c1.[Cl-] [Rhodamine B]	no selectivity	–
AV-PE: R-phycoerythrin labeled annexin V (protein, UniProt P08758 2-320, looked up, R-phycoerythrin label, R-phycoerythrin labeled annexin V) Annexin A5: AQVLRGTVTDFPGFDERADAETLRKAMKGLGTDEESILTLLTSRSNAQRQEISAAFKTLFGRDLLDDLKSELTGKFEKLIVALMKPSRLYDAYELKHALKGAGTNEKVLTEIIASRTPEELRAIKQVYEEEYGSSLEDDVVGDTSGYYQRMLVVLLQANRDPDAGIDEAQVEQDAQALFQAGELKWGTDEEKFITIFGTRSVSHLRKVFDKYMTISGFQIEETIDRETSGNLEQLLLAVVKSIRSIPAYLAETLYYAMKGAGTDDHTLIRVMVSRSEIDLFNIRKEFRKNFATSLYSMIKGDTSGDYKKALLLLCGEDD	–	membrane location
